Common to all, as to assay type: cell-based
For assay [1], the system named is GIST882 cell line. The experiment in a line: Cancer cell cytotoxicity assay (sulforhodamine B). The note with it: for IC50: Homo sapiens, 96 h, GIST882, 4 days, read-out: IC50 c-kit GIST882. The protocol: To validate the hypothesis that the designed c-kit/PDGFR tyrosine kinase inhibitors mediate GIST882 cell killing and PDGFR-mediated cell killing of pancreatic cancer cell lines (CFPAC-1, PANC-1 and MIA PaCa-2), an in vitro cytotoxicity assay was performed. The GIST882 cell line used in this study has a c-kit gain-of-function mutation (K642E). […] First the cells were cultured. GIST882 cells were provided by Dr. Jonathan A. Fletcher (Dana-Farber Cancer Institute, Boston, Mass.). PANC-1 and MIAPaCa-2 cells were provided by Dr. Daniel Von Hoff (Arizona Cancer Center, Tucson, Ariz.). […] All the cell lines were incubated in a humidified incubator at 37° C. with 5% CO2 atmosphere.
(§1) After incubation for 4 days at 37° C. in a humidified incubator, the cells were fixed with 10% Trichloroacetic acid solution (Catalog No. 490-10, Sigma). Subsequently, they were labeled with 0.04% Sulforhodamine B (S9012, Sigma) in 1% acetic acid. After multiple washes to remove excess dye, 100 μl of 50 mM Tris solution was added to each well in order to dissolve the dye. The absorbance of each well was read on a plate reader (Wallac Vector^2, PerkinElmer) at the wavelength of 570 nm. Data were expressed as the percentage of survival of control calculated from the absorbance corrected for background absorbance. The surviving percent of cells was determined by dividing the mean absorbance values of the […] by the mean absorbance values of the control and multiplying by 100.

Assay [2] has as its system GIST882 cell line. The experiment in a line: GIST882 cell growth assay (Cell-Titer-Glo). The following applies: for IC50: Homo sapiens, GIST882, 96 hours. Here is the method:
(§2) Briefly, cells are seeded into 96-well, tissue-culture treated, opaque white plates (Thermo Electron, Vantaa, Finland), at between 5000 and 7500 cells per well, depending on the speed of cell proliferation, in 100 μl of appropriate growth medium (determined by the ATCC). Cells are then exposed to the appropriate concentration of drug or an equal amount of DMSO (drug diluent) and allowed to grow in its presence for 96 hours. Following this, 100 μl of Cell-Titer-Glo reagent (Promega, Inc., Madison, Wis.) is added to each well. Plates are then shaken for 2 minutes at room temperature to allow for cell lysis and incubated for 10 minutes to stabilize the luminescent signal. Similar to the Kinase-Glo assay reagent, this reagent contains both luciferase enzyme and its substrate luciferin. Luciferase, activated by ATP in the cell lysate, catalyzes the conversion of luciferin to oxyluciferin, a reaction which produces light. The amount of light produced is proportionate to the amount of ATP in the cell lysate, which is itself proportional to cell number and gives an index of cellular proliferation.
as §2, with “Various compounds of the invention, including (IV-1-3) (also referred to as HPK16), (III-1-3) (also referred to as HPK56), (III-1-4) (also referred to as HPK57), (III-1-5) (also referred to as HPK59), and (II-2-7) (also referred to as HPK61) were tested for activity against GIST tumor cells using the GIST882 cell line. Briefly,” for “Briefly,”

The next assay has as its system PANC-1 cells. The experiment in a line: Cancer cell cytotoxicity assay (sulforhodamine B). The following applies: Homo sapiens, 96 h; PANC-1, 4 days; read-out: IC50 PDGFR PANC-1. Here is the method: (§3) To validate the hypothesis that the designed c-kit/PDGFR tyrosine kinase inhibitors mediate GIST882 cell killing and PDGFR-mediated cell killing of pancreatic cancer cell lines (CFPAC-1, PANC-1 and MIA PaCa-2), an in vitro cytotoxicity assay was performed. The GIST882 cell line used in this study has a c-kit gain-of-function mutation (K642E). The assay utilized the Cell Titer 965 Non-Radioactive Cell Proliferation Assay (Promega Corp., Madison, Wis.). First the cells were cultured. GIST882 cells were provided by Dr. Jonathan A. Fletcher (Dana-Farber Cancer Institute, Boston, Mass.). PANC-1 and MIAPaCa-2 cells were provided by Dr. Daniel Von Hoff (Arizona Cancer Center, Tucson, Ariz.). GIST882 cells were cultured in RPMI 1640 medium (Cat #21870-076, Invitrogen Corporation) supplemented with 300 mg/L L-glutamine, 100 unit/ml penicillin, 100 μg/ml streptomycin and 15% fetal bovine serum. PANC-1 and MIAPaCa-2 cells were maintained in RPMI 1640 medium (cat #10-040, Mediatech, Inc.) supplemented with 100 unit/ml penicillin, 100 μg/ml streptomycin and 10% fetal bovine serum. All the cell lines were incubated in a humidified incubator at 37° C. with 5% CO2 atmosphere.
as §1, with “Cells were plated at a density of 2000 to 10000 cells per well, depending on their growth rate, in 0.1 mL medium on day 0 in 96-well Falcon microtiter plates (#3072, Becton-Dickinson Labware, Lincoln Park, N.J.). On day 1, 10 μL of serial dilutions of the individual compounds were added to the plates in replicates of 4. After incubation” for “After incubation”

In another assay the test system is MIAPaCa-2 cells. Put plainly: Cancer cell cytotoxicity assay (sulforhodamine B). The following applies: Homo sapiens, MIA PaCa-2, 96 h; MIAPaCa-2, 4 days; read-out: IC50 PDGFR MIAPaCa. The protocol: as §3
as §1, with “Cells were plated at a density of 2000 to 10000 cells per well, depending on their growth rate, in 0.1 mL medium on day 0 in 96-well Falcon microtiter plates (#3072, Becton-Dickinson Labware, Lincoln Park, N.J.). On day 1, 10 μL of serial dilutions of the individual compounds were added to the plates in replicates of 4. After incubation” for “After incubation”

The term IC50 denotes the concentration at which inhibition is half-maximal. For `COc1cc2ncnc(N3CCN(C(=S)Nc4ccc(S(=O)(=O)Nc5ncccn5)cc4)CC3)c2cc1OC` [HPK16, 4-(6,7-Dimethoxy-quinazolin-4-yl)-piperazine-1-carbothioic acid [4-(pyrimidin-2-ylsulfamoly)-phenyl]-amide], the half-inhibitory concentration (IC50) in the assay with GIST882 cell line [1] was 50 µM; with GIST882 cell line [2], 50 µM; with PANC-1 cells, more than 50 µM; in the assay on MIAPaCa-2 cells, more than 50 µM.
`S=C(NCc1ccc2c(c1)OCO2)N1CCN(c2ncnc3c2oc2ccccc23)CC1` [HPK56, 4-Benzo[4,5]furo[3,2-d]pyrimidin-4-yl-piperazine-1-carbothioic acid (benzo[1,3]dioxol-5-ylmethyl)-amide]: the “cells alive at day 4” value with GIST882 cell line [1] (GIST882, day 4) is 5%. Also, the IC50 with GIST882 cell line [1] came out at 1.6 µM; in the assay on GIST882 cell line [2], 1.6 µM; in the assay with PANC-1 cells, 3 µM; in the assay on MIAPaCa-2 cells, 2.1 µM. Besides, the “inhibitory activity in GIST882 cell line (in words)” value with GIST882 cell line [2] (FIG. 29, 96 hours) is listed as “highest inhibitory activity”.
Take `COc1cc2[nH]c3ncnc(N4CCN(C(=S)Nc5ccc(S(=O)(=O)Nc6ncccn6)cc5)CC4)c3c2cc1OC` [HPK62, 4-(6,7-Dimethoxy-9H-1,3,9-triaza-fluoren-4-yl)-piperazine-1-carbothioic acid [4-(pyrimidin-2-ylsulfamoyl)-phenyl]-amide]: the IC50 in the assay with GIST882 cell line [1] was 28 µM; with GIST882 cell line [2] it was 28 µM; in the assay with PANC-1 cells it was more than 50 µM; in the assay with MIAPaCa-2 cells, more than 50 µM.

The record behind these values is patent US8552018B2, “Substituted tricyclic compounds as protein kinase inhibitors” (Arizona Board of Regents on behalf of the University of …, priority 2003, dated 2013).
